Results on one compound are retold here after publication PMC9254247, “Dual-sensitive antibacterial peptide nanoparticles prevent dental caries” (Theranostics, 2022).

One assay relates to S. mutans UA159. Nature of the assay: Bacterial killing assay (CFU counting), S. mutans UA159. It counts as cell-based, Streptococcus mutans. Particulars: for bactericidal effect: 10 min. The protocol:
Minimal inhibition concentration (MIC) determination . S.mutans UA159 (ATCC 700610) and 20 clinical S.mutans strains were used. S.mutans UA159 was purchased from Shanghai Biofeng Biotechnology Co., LTD. These bacteria grown in brain heart infusion broth (BHI, Beijing Land Bridge, China) at 37 °C under anaerobic conditions. […]
Bacterial killing by pHly-1 NPs at various pHs. pHly-1 NPs were diluted in BHI medium of different pHs (pH 4.5, 5.5, 6.8, and 7.0) to obtain specific diluted solutions (final volume of 200 μ L). 1 μ L bacterial suspension (2×10^8 CFU/mL) in the logarithmic phase was added into corresponding diluted solutions and mixed […]
individually. […]
aliquots of 20 μL bacterial suspension were plated on BHI agar plates. The bacterial killing activity of pHly -1 NPs was measured by counting the CFU of alive bacteria with agar plating after incubation under anaerobic conditions for 48 h at 37 °C. The results were determined and presented of three repeats. Bacterial survival(%) = CFU of bacteria treated with drugs/CFU of bacteria treated with negative control× 100% 2.
The SYTO 9 / PI double staining and scanning electron microscopy (SEM) were also performed to evaluate the bacterial killing and bacterial membrane disruption.
For SYTO 9/PI double staining, pHly -1 NPs was added to actively growing S. mutans UA159 (10^6 CFU/m L) at the concentration of 22 μM at pH 4.5 or pH 7.0, after 1 h incubation, the bacteria treated were imaged by using LIVE/DEAD BacLight Bacterial Viability Kit (Thermo Fisher Scientific). SYTO 9 and PI were added according to the manufacturer ’s protocol and used for labeling […]
bacteria. […]
For SEM, S. mutans UA159 was treated by the same way to SYTO 9/PI double staining asay and then harvested, washed, and then fixed in 2.5 % glutaraldehyde for 3 h. After dehydration by serial concentrations of ethanol solutions (10%, 25%, 50%, 75%, 95%, and 100%) and lyophiliz ation overnight, the lyophilized samples were coated with goldand then photographed by SEM.

Another assay concerns S. mutans UA159 biofilm. Description: S. mutans biofilm treatment in vitro on glass slides. It counts as cell-based, Streptococcus mutans. The conditions noted are these: 55 μM; 10 min every 12 h, 3 times; confocal (Figure S10A-B). The protocol: a concentration of 1×10^8 CFU/mL. pHly-1 NPs and CHX were diluted in BHI containing 1% sucrose to reach a series of concentration s and added to 96-well microplates (180 μL). Then, 2 μL S.mutans suspensions were seeded into 96-well microplates in the presence of different concentrations of pHly -1 NPs and CHX and the plate was incubated at 37 °C. After 24 h, the culture supernatants were gently discarded, and each well was rinsed three times with PBS (pH 7.0) to remove unattached bacteria. The bacterial viability was measured by methyl thiazol tetrazolium (MTT) assay. […] The MTT assay was performed to determined the minimum biofilm inhibition concentration (MBIC 50) by using the Microplate Reader at OD 490 nm 7. […]
S.mutans biofilm treatment in vitro, characterization and quantitative analysis.
Biofilms were formed on circular glass slides in a 24-well plate. […] B iofilms formed on glass slides were used for SEM, fluorescent staining and bacterial quantitative analyses. […]
For quantitative analysis9,10, after the treatment was finished, biofilms were removed from the glass slides and homogenized by water bath sonication followe d by probe sonication at an output of 7 W for 30 s (Branson Sonifier 150, Branson Ultrasonics). […] The effect of pHly- 1 NPs or CHX on biofilms was measured by counting the CFU of alive bacteria with agar plating after incubation for 48 h at 37 °C. […]

`[H]/N=C(\N/C(=N/[H])NCCCCCCNC(=N)NC(=N)Nc1ccc(Cl)cc1)Nc1ccc(Cl)cc1` [CHX, chlorhexidine]: the bactericidal effect result in the assay with S. mutans UA159 (22 μM, both acidic and neutral pH) was “no apparent bactericidal effect”; in the assay with S. mutans UA159 (550 μM, both acidic and neutral conditions), “kill bacteria completely”. Further, the bacterial survival entry in the assay on S. mutans UA159 (22 μM, 120 min, kinetic assay) was “ca. 60%”. In the assay with S. mutans UA159 biofilm, the “suppression effect on pre-formed biofilm” value is “almost negligible”.
